From US8377478B2, “Solid detergent composition” (Innospec Limited, priority 2007, dated 2013)

Tests used:
Assay type in all cases: physicochemical
[1] = Appearance of the materials observed periodically over 72 hours
Method: The appearance of each of the materials was observed periodically over 72 hours. The observations are recorded in table 2.

[2] = Solubility: EDDS content of a saturated solution in water; conditions: room temperature, stirred overnight, as free EDDS, ignoring counter ion
Method: The solubility of each sample was measured as follows: An excess of solid material was added to 5 ml of water and stirred overnight at room temperature. The solution was filtered and the filtrate analysed for EDDS content by HPLC. The solubility values given in table 4 refer to the amount of free EDDS or succinate ion present and ignore the mass of any associated counter ion.

[3] = Increase in mass of the samples over time
Description: Table 3 show how the samples increased in mass over time.

Appearance after 24 hr ([1]; after 24 hr)	Appearance after 48 hr [1]	Appearance after 72 hr [1]	Initial Appearance [1]	EDDS content of a saturated solution solubility [2]	% increase in mass after 72 hr [3]	Appearance after 24 hr ([1]; cell in the 24 hr column marked (2 hr))	SMILES
Free flowing	Free flowing	Free flowing	Free flowing	164300 mg/kg	0.10%		O=C([O-])CC(NCCNC(CC(=O)[O-])C(=O)[O-])C(=O)[O-].[Mg+2].[Mg+2] (centres unmarked) [Example A]
Slightly	Slightly	Slightly	Free flowing	10100 mg/kg	8.81%		O=C([O-])CC(NCCNC(CC(=O)[O-])C(=O)[O-])C(=O)[O-].[Ca+2].[Ca+2] (centres unmarked) [F]
	Very Sticky	Very Sticky	Free flowing		25%	Sticky Solid	O=C1CCC(=O)ON2CCN(O1)OC(=O)CCC(=O)O2.[Na].[Na].[Na] [Na3EDDS, trisodium ethylenediamine disuccinate]
